The values that follow come from patent US10676485B2, “Macrocyclic MCL-1 inhibitors and methods of use” (AbbVie Inc., priority 2017, dated 2020).

Read-outs that look alike come from different tables or passages of the source.

For one assay, the target named is GST-MCL-1 (Homo sapiens (Human), UniProt Q07820). The experiment in a line: TR-FRET MCL-1 binding assay (competition with probe F-Bak). As for the experimental part: For the assay, an acoustic dispenser was used to prepare dilution series from 10 mM test compounds in 100% DMSO and directly transfer 160 nL into low volume 384-well assay plates. 8 μL of a protein/probe/antibody mix was then added to each well resulting in final concentrations listed below: Test compound: 11 three-fold dilutions beginning at 25 μM
The samples were then mixed on a shaker for 1 minute and incubated for an additional 2 hours at room temperature. For each assay plate, a probe/antibody and protein/antibody/probe mixture were included as a negative and a positive control, respectively. Fluorescence was measured on the Envision (Perkin Elmer) using a 340/35 nm excitation filter and 520/525 (F-Bak) and 495/510 nm (Tb-labeled anti-his antibody) emission filters. […] The TR-FRET assay can be performed in the presence of varying concentrations of human serum (HS) or fetal bovine serum (FBS). Compounds were tested both without HS and in the presence of 10% HS.
Background: TR-FRET usually uses a lanthanide donor and a delayed reading to cut background.

Assay [1] concerns NCI-H929 human multiple myeloma tumor cell line. Description: NCI-H929 cell viability assay (CellTiter-Glo). Type of assay: cell-based. As to conditions: NCI-H929, read-out: H929 Viability IC50 (μM), 10% FBS, 24 hours of compound treatment. Background: ATP-based viability assays read luminescence as a measure of living cells.
The test system of assay [2] is AMO-1 human multiple myeloma tumor cell line. The experiment in a line: AMO-1 cell viability assay (CellTiter-Glo). Type of assay: cell-based. As to conditions: AMO1, read-out: AMO-1 Viability IC50 (μM), 10% FBS, 24 hours of compound treatment.
Method: In one exemplary set of conditions, NCI-H929 or AMO-1 (ATCC. Manassas, Va.) were plated 4.000 cells per well in 384-well tissue culture plates (Corning. Corning, N.Y.) in a total volume of 25 μL RPMI tissue culture medium supplemented with 10% fetal bovine serum (Sigma-Aldrich, St. Louis, Mo.) and treated with a 3-fold serial dilution of the compounds of interest with a Labcyte Echo from a final concentration of 10 μM to 0.0005 μM. Each concentration was tested in duplicate at least 3 independent times. A luminescent signal proportional to the number of viable cells following 24 hours of compound treatment was determined using the CellTiter-Glo® Luminescent Cell Viability Assay according to the manufacturer's recommendations (Promega Corp., Madison, Wis.). The plates were read in a Perkin Elmer Envision using a Luminescence protocol. To generate dose response curves the data is normalized to percent viability by setting the averages of the staurosporine (10 uM) and DMSO only control wells to 0% and (00)% viability respectively. The IC50 values for the compounds are generated by fitting the normalized data with Accelrys Assay Explorer 3.3 to a sigmoidal curve model using linear regression.
Setting [3] is: read-out: MCL-1 Binding Ki (nM, 10% HS), in the presence of 10% HS.
The mark [4] stands for this setting: without HS, read-out: MCL-1 Binding Ki.

Chain of GST-MCL-1 (Q07820 whole entry): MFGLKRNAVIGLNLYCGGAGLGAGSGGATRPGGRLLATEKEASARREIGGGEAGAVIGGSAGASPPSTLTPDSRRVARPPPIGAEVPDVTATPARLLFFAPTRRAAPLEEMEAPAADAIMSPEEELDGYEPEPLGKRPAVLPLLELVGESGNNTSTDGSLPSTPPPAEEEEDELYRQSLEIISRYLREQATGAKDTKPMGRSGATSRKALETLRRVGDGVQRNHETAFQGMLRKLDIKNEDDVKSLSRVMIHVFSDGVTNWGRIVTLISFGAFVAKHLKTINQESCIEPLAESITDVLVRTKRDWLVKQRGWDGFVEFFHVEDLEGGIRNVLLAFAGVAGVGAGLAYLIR

For the molecule `Cc1c(Cl)c2c(Cl)c(C)c1-c1c(-c3ccc(F)cc3)sc3ncnc(c13)O[C@@H](C(=O)O)Cc1cc(ccc1OCc1ccnc(-c3ccc(OC[C@H]4COCCO4)cc3)n1)OC[C@@H](CN1CCN(C)CC1)O2` [Example 2, (7R,16R)-19,23-dichloro-10-{[2-(4-{[(2R)-1,4-dioxan-2-yl]methoxy}phenyl)pyrimidin-4-yl]methoxy}-1-(4-fluorophenyl)-20,22-dimethyl-16-[(4-methylpiperazin-1-yl)methyl]-7,8,15,16-tetrahydro-18,21-etheno-13,9-(metheno)-6,14,17-trioxa-2-thia-3,5-diazacyclononadeca[1,2,3-cd]indene-7-carboxylic acid], the inhibition constant Ki (commonly a measure of affinity in units of concentration, obtained from inhibition or displacement) at GST-MCL-1 (setting [3]) is 1.04 nM; at GST-MCL-1 (setting [4]), 0.052 nM. In addition, the IC50 – broadly, the concentration that gives 50% inhibition – turned out to be 0.0033 µM in assay [1] and 0.00019 µM in assay [2].
On the same counts, the results for `Cc1c2ccc(c1Cl)O[C@H](CN1CCN(C)CC1)COc1ccc(OCc3ccnc(C4COCCO4)n3)c(c1)C[C@H](C(=O)O)Oc1ncnc3sc(-c4ccc(F)cc4)c-2c13` (stereo partly drawn) [Example 4, (7R,16R,21S)-19-chloro-10-{[2-(1,4-dioxan-2-yl)pyrimidin-4-yl]methoxy}-1-(4-fluorophenyl)-20-methyl-16-[(4-methylpiperazin-1-yl)methyl]-7,8,15,16-tetrahydro-18,21-etheno-13,9-(metheno)-6,14,17-trioxa-2-thia-3,5-diazacyclononadeca[1,2,3-cd]indene-7-carboxylic acid] are 0.32 nM, 0.055 nM, 0.00572 µM and 0.00273 µM.
In the same order, the values of `Cc1c(Cl)c2c(Cl)c(C)c1-c1c(-c3ccc(F)cc3)sc3ncnc(c13)O[C@@H](C(=O)O)Cc1cc(ccc1OCc1ccnc(-c3ccc(OC[C@H]4COCCO4)nc3)n1)OC[C@@H](CN1CCN(C)CC1)O2` [Example 5, (7R,16R)-19,23-dichloro-10-{[2-(6-{[(2R)-1,4-dioxan-2-yl]methoxy}pyridin-3-yl)pyrimidin-4-yl]methoxy}-1-(4-fluorophenyl)-20,22-dimethyl-16-[(4-methylpiperazin-1-yl)methyl]-7,8,15,16-tetrahydro-18,21-etheno-13,9-(metheno)-6,14,17-trioxa-2-thia-3,5-diazacyclononadeca[1,2,3-cd]indene-7-carboxylic acid] are 0.71 nM, 0.048 nM, 0.00037 µM and 0.000178 µM.
On the same counts, the results for `Cc1c(Cl)c2c(Cl)c(C)c1-c1c(-c3ccc(F)cc3)sc3ncnc(c13)O[C@@H](C(=O)O)Cc1cc(ccc1OCc1ccnc(-c3ccc(OC[C@@H]4COCCO4)nc3)n1)OC[C@@H](CN1CCN(C)CC1)O2` [Example 6, (7R,16R)-19,23-dichloro-10-{[2-(6-{[(2S)-1,4-dioxan-2-yl]methoxy}pyridin-3-yl)pyrimidin-4-yl]methoxy}-1-(4-fluorophenyl)-20,22-dimethyl-16-[(4-methylpiperazin-1-yl)methyl]-7,8,15,16-tetrahydro-18,21-etheno-13,9-(metheno)-6,14,17-trioxa-2-thia-3,5-diazacyclononadeca[1,2,3-cd]indene-7-carboxylic acid] are 6.09 nM, 0.926 nM, 0.000359 µM and 0.000135 µM.
With `Cc1c(Cl)c2c(Cl)c(C)c1-c1c(-c3ccc(F)cc3)sc3ncnc(c13)O[C@@H](C(=O)O)Cc1cc(ccc1OCc1ccnc([C@H]3CC[C@H](OC[C@H]4COCCO4)CC3)n1)OC[C@@H](CN1CCN(C)CC1)O2` [Example 9, (7R,16R)-19,23-dichloro-10-({2-[(1R,4r)-4-{[(2R)-1,4-dioxan-2-yl]methoxy}cyclohexyl]pyrimidin-4-yl}methoxy)-1-(4-fluorophenyl)-20,22-dimethyl-16-[(4-methylpiperazin-1-yl)methyl]-7,8,15,16-tetrahydro-18,21-etheno-13,9-(metheno)-6,14,17-trioxa-2-thia-3,5-diazacyclononadeca[1,2,3-cd]indene-7-carboxylic acid], the Ki at GST-MCL-1 (setting [3]) worked out at 0.1 nM; at GST-MCL-1 (setting [4]) it was 0.005 nM. Also, the figures for the 50% inhibitory concentration (IC50) in assay [1] and in assay [2] were 0.000245 µM and 0.000165 µM, respectively.
On the same counts, the results for `Cc1c(Cl)c2c(Cl)c(C)c1-c1c(-c3ccc(F)cc3)sc3ncnc(c13)O[C@@H](C(=O)O)Cc1cc(ccc1OCc1ccnc(N3CCC(OC[C@H]4COCCO4)CC3)n1)OC[C@@H](CN1CCN(C)CC1)O2` [Example 10, (7R,16R)-19,23-dichloro-10-{[2-(4-{[(2R)-1,4-dioxan-2-yl]methoxy}piperidin-1-yl)pyrimidin-4-yl]methoxy}-1-(4-fluorophenyl)-20,22-dimethyl-16-[(4-methylpiperazin-1-yl)methyl]-7,8,15,16-tetrahydro-18,21-etheno-13,9-(metheno)-6,14,17-trioxa-2-thia-3,5-diazacyclononadeca[1,2,3-cd]indene-7-carboxylic acid] are 3.07 nM, 0.346 nM, 0.00217 µM and 0.000502 µM.
Take `Cc1c(Cl)c2c(Cl)c(C)c1-c1c(-c3ccc(F)cc3)sc3ncnc(c13)O[C@@H](C(=O)O)Cc1cc(ccc1OCc1ccnc(C3(COC[C@H]4COCCO4)CCC3)n1)OC[C@@H](CN1CCN(C)CC1)O2` [Example 11, (7R,16R)-19,23-dichloro-10-({2-[1-({[(2S)-1,4-dioxan-2-yl]methoxy}methyl)cyclobutyl]pyrimidin-4-yl}methoxy)-1-(4-fluorophenyl)-20,22-dimethyl-16-[(4-methylpiperazin-1-yl)methyl]-7,8,15,16-tetrahydro-18,21-etheno-13,9-(metheno)-6,14,17-trioxa-2-thia-3,5-diazacyclononadeca[1,2,3-cd]indene-7-carboxylic acid]: the IC50 in assay [1] came out at 0.000545 µM; in assay [2], 0.000188 µM.
For `Cc1c(Cl)c2c(Cl)c(C)c1-c1c(-c3ccc(F)cc3)sc3ncnc(c13)O[C@@H](C(=O)O)Cc1cc(ccc1OCc1ccnc(N3CC(COC[C@H]4COCCO4)C3)n1)OC[C@@H](CN1CCN(C)CC1)O2` [Example 12, (7R,16R)-19,23-dichloro-10-({2-[3-({[(2S)-1,4-dioxan-2-yl]methoxy}methyl)azetidin-1-yl]pyrimidin-4-yl}methoxy)-1-(4-fluorophenyl)-20,22-dimethyl-16-[(4-methylpiperazin-1-yl)methyl]-7,8,15,16-tetrahydro-18,21-etheno-9,13-(metheno)-6,14,17-trioxa-2-thia-3,5-diazacyclononadeca[1,2,3-cd]indene-7-carboxylic acid], the inhibition constant (Ki) on GST-MCL-1 (setting [3]) amounted to 0.61 nM; on GST-MCL-1 (setting [4]), 0.076 nM. Further, the IC50 in assay [1] worked out at 0.00208 µM; in assay [2] it was 0.00104 µM.
Regarding `Cc1c(Cl)c2c(Cl)c(C)c1-c1c(-c3ccc(F)cc3)sc3ncnc(c13)O[C@@H](C(=O)O)Cc1cc(ccc1OCc1ccnc(N3CC(COC[C@@H]4COCCO4)C3)n1)OC[C@@H](CN1CCN(C)CC1)O2` [Example 13, (7R,16R)-19,23-dichloro-10-({2-[3-({[(2R)-1,4-dioxan-2-yl]methoxy}methyl)azetidin-1-yl]pyrimidin-4-yl}methoxy)-1-(4-fluorophenyl)-20,22-dimethyl-16-[(4-methylpiperazin-1-yl)methyl]-7,8,15,16-tetrahydro-18,21-etheno-9,13-(metheno)-6,14,17-trioxa-2-thia-3,5-diazacyclononadeca[1,2,3-cd]indene-7-carboxylic acid], the figures for the inhibition constant (Ki) on GST-MCL-1 (setting [3]) and at GST-MCL-1 (setting [4]) were 1.07 nM and 0.079 nM, respectively. In addition, the figures for the IC50 in assay [1] and in assay [2] were 0.00311 µM and 0.00126 µM, respectively.
On the same counts, the results for `Cc1c(Cl)c2c(Cl)c(C)c1-c1c(-c3ccc(F)cc3)sc3ncnc(c13)O[C@@H](C(=O)O)Cc1cc(ccc1OCc1ccnc([C@H]3CC[C@H](OCC4COCO4)CC3)n1)OC[C@@H](CN1CCN(C)CC1)O2` (stereo partly drawn) [Example 14, (7R,16R)-19,23-dichloro-10-[(2-{(1r,4r)-4-[(1,3-dioxolan-4-yl)methoxy]cyclohexyl}pyrimidin-4-yl)methoxy]-1-(4-fluorophenyl)-20,22-dimethyl-16-[(4-methylpiperazin-1-yl)methyl]-7,8,15,16-tetrahydro-18,21-etheno-13,9-(metheno)-6,14,17-trioxa-2-thia-3,5-diazacyclononadeca[1,2,3-cd]indene-7-carboxylic acid] are 0.09 nM, 0.006 nM, 0.000236 µM and 0.000114 µM.
On to `Cc1c(Cl)c2c(Cl)c(C)c1-c1c(-c3ccc(F)cc3)sc3ncnc(c13)O[C@@H](C(=O)O)Cc1cc(ccc1OCc1ccnc([C@H]3CC[C@@H](OCC4COCCO4)CC3)n1)OC[C@@H](CN1CCN(C)CC1)O2` (stereo partly drawn) [Example 15, (7R,16R)-19,23-dichloro-10-[(2-{(1s,4s)-4-[(1,4-dioxan-2-yl)methoxy]cyclohexyl}pyrimidin-4-yl)methoxy]-1-(4-fluorophenyl)-20,22-dimethyl-16-[(4-methylpiperazin-1-yl)methyl]-7,8,15,16-tetrahydro-18,21-etheno-13,9-(metheno)-6,14,17-trioxa-2-thia-3,5-diazacyclononadeca[1,2,3-cd]indene-7-carboxylic acid], for which the Ki was found to be 0.15 nM at GST-MCL-1 (setting [3]) and 0.013 nM at GST-MCL-1 (setting [4]). In addition, the IC50 in assay [1] was 0.000294 µM; in assay [2], 0.000156 µM.
